Laboratory results: US20170274006A1, “NASAL COMPOSITION COMPRISING MIXTURE OF HYALURONIC ACIDS AND SALINE SOLUTION” (SOFIBEL, priority 2014, published 2017)

Test system: HRV-A16
Test: Anti-viral effect: inhibition of HRV-A16 replication on human airway epithelial cell culture
Type: cell-based, rhinovirus
Conditions: applied one hour before infection; change in viral RNA
Procedure: The example 1 composition is tested according to the test of evaluation of the potential activity against HRV-A16 (a rhinovirus responsible for colds) on fully differentiated human airway epithelial cells culture. The compositions are first applied before infection for one hour and the replication is carried out for 4 hours. 3 rinsing steps with the formulations are carried out. The remaining is collected and the RNA is dosed after cell lysis. The same collecting step is carried out 24 hours after and the same dosing step is carried out. The percentage expressed the changes in viral RNA, resulting in the % of inhibition of HRV-A16 replication, leading to the anti-viral efficacy. The tested composition is tested against rupintrivir (a known antiviral compound, providing an almost complete response).

## CCOC(=O)/C=C/[C@H](C[C@@H]1CCNC1=O)NC(=O)[C@@H](CC(=O)[C@@H](NC(=O)c1cc(C)on1)C(C)C)Cc1ccc(F)cc1 [Rupintrivir]
  Inhibition (%) of HRV-A16 replication: 99.62%
